Laboratory results: US9999616B2 (ZENITH EPIGENETICS LTD., priority 2013, dated 2018)

Experiments:
hIL-6 mRNA = experiment: Inhibition of hIL-6 mRNA transcription in LPS-stimulated U937 macrophages; format: cell-based, Human; conditions: 1 h pretreatment, LPS 3 h; for IC50: Homo sapiens, U-937, PMA-differentiated U937 cells, read-out: IL-6 activity
Protocol: Human leukemic monocyte lymphoma U937 cells (CRL-1593.2) were plated at a density of 3.2×10^4 cells per well in a 96-well plate in 100 μL RPMI-1640 containing 10% FBS and penicillin/streptomycin, and differentiated into macrophages for 3 days in 60 ng/mL PMA ([…]) at 37° C. in 5% CO2 prior to the addition of compound. The cells were pretreated for 1 h with increasing concentrations of test compound in 0.1% DMSO prior to stimulation with 1 ug/mL lipopolysaccharide from Escherichia coli. Triplicate wells were used for each concentration. The cells were incubated at 37° C., 5% CO2 for 3 h before the cells were harvested. At time of harvest, media was removed and cells were rinsed in 200 μL PBS. Cells were harvested using the mRNA Catcher PLUS kit according to manufacturer's instructions. The eluted mRNA was then used in a one-step quantitative real-time PCR reaction using components of the RNA UltraSense™ One-Step Kit (Life Technologies) together with Applied Biosystems TaqMan® primer-probes for hIL-6 and Cyclophilin. Real-time PCR plates were run on a ViiA™7 real time PCR machine (Applied Biosystems), data was analyzed, normalizing the Ct values for hlL-6 to an internal control, prior to determining the fold expression of each sample, relative to the control.

[1] = test system: c-myc in Human AML MV4-11 cells; experiment: Inhibition of cMYC expression (mRNA, real-time PCR) in MV4-11 cells; format: cell-based; conditions: 3 h treatment, cMYC mRNA by real-time PCR
Protocol: MV4-11 cells (CRL-9591) were plated at a density of 2.5×10^4 cells per well in 96 well U-bottom plates and treated with increasing concentrations of test compound or DMSO (0.1%) in IMDM media containing 10% FBS and penicillin/streptomycin, and incubated for 3 h at 37′C. Triplicate wells were used for each concentration. Cells were pelleted by centrifugation and harvested using the mRNA Catcher PLUS kit according to manufacturer's instructions. The eluted mRNA isolated was then used in a one-step quantitative real-time PCR reaction, using components of the RNA UltraSense™ One-Step Kit (Life Technologies) together with Applied Biosystems TaqMan® primer-probes for cMYC and Cyclophilin. Real-time PCR plates were run on a ViiA™7 real time PCR machine (Applied Biosystems), data was analyzed, normalizing the Ct values for cMYC to an internal control, prior to determining the fold expression of each sample, relative to the control.

Human AML MV-4-11 cells = experiment: Inhibition of cell proliferation in MV4-11 cells (CellTiter Aqueous One); format: cell-based; conditions: MV4-11, 72 h
Protocol: MV4-11 cells (CRL-9591) were plated at a density of 5×10^4 cells per well in 96 well flat bottom plates and treated with increasing concentrations of test compound or DMSO (0.1%) in IMDM media containing 10% FBS and penicillin/streptomycin. Triplicate wells were used for each concentration and a well containing only media was used as a control. Plates were incubated at 37° C., 5% CO2 for 72 h before adding 20 µL of the CellTiter Aqueous One Solution (Promega) to each well and incubated at 37° C., 5% CO2 for an additional 3-4 h. The absorbance was read at 490 nm in a spectrophotometer and the percentage of cell titer relative to DMSO-treated cells was calculated after correcting for background by subtracting the blank well's signal. IC50 values were calculated using the GraphPad Prism software.

[2] = target: Brd4 bromodomain 1 (BRD4(1)) (Homo sapiens, UniProt O60885); experiment: Inhibition of tetra-acetylated histone H4 binding to Brd4 bromodomain 1, measured by FRET (HTRF); set-up: made in house; host or cells: E. coli BL21(DE3); conditions: 2 h at room temperature
Summary of the method: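 Inhibition was read as a drop in 665 nm relative to 620 nm HTRF signal after 2 h at room temperature, with IC50 from dose-response curves in duplicate wells. Reactions held 200 nM E. coli-expressed His-tagged bromodomain and 25-50 nM biotinylated tetra-acetylated histone H4 peptide. Buffer was 30 mM HEPES pH 7.4 with KF, CHAPS, BSA and 0.2% DMSO.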

Structure (SMILES)	IC50 (hIL-6 mRNA)	IC50 [1]	IC50 (Human AML MV-4-11 cells)	IC50 [2]	IL-6 activity (hIL-6 mRNA; PMA-differentiated U937 cells)
Cc1noc(C)c1-c1cc(NCc2ccccc2)c2nncn2c1 [Example Compound 24, N-benzyl-6-(3,5-dimethylisoxazol-4-yl)-[1,2,4]triazolo[4,3-o]pyridin-8-amine]	300 to 3000 nM	300 to 3000 nM	3000 to 30000 nM	≤ 300 nM	
COc1ccc(Nc2cc(-c3c(C)noc3C)cc3[nH]cnc23)cc1 [Example Compound 25, 6-(3,5-dimethylisoxazol-4-yl)-N-(4-methoxyphenyl)-1H-benzo[d]imidazol-4-amine]	300 to 3000 nM	300 to 3000 nM	300 to 3000 nM	300 to 3000 nM	
Cc1ncsc1-c1cc(-c2c(C)noc2C)cc2[nH]cnc12 [Example Compound 26, 3,5-dimethyl-4-(4-(4-methylthiazol-5-yl)-1H-benzo[d]imidazol-6-yl)isoxazole]	≤ 300 nM	300 to 3000 nM	300 to 3000 nM	≤ 300 nM	
Cc1noc(C)c1-c1cc(-c2ccccc2CN(C)C)c2nc[nH]c2c1 [Example Compound 28, 1-(2-(6-(3,5-dimethyl-isoxazol-4-yl)-1H-benzo[d]imidazol-4-yl)phenyl)-N,N-dimethyl methanamine]	300 to 3000 nM	300 to 3000 nM	300 to 3000 nM	300 to 3000 nM	
Cc1noc(C)c1-c1cc(Nc2cccc(F)c2)c2nc[nH]c2c1 [Example Compound 32, 6-(3,5-dimethyl-isoxazol-4-yl)-N-(3-fluorophenyl)-1H-benzo[d] imidazol-4-amine]	300 to 3000 nM	300 to 3000 nM	300 to 3000 nM	≤ 300 nM	
COc1cccc(Nc2cc(-c3c(C)noc3C)cc3[nH]cnc23)c1 [Example Compound 33, 6-(3,5-dimethyl-isoxazol-4-yl)-N-(3-methoxy-phenyl)-1H-benzo[d] imidazol-4-amine]	300 to 3000 nM	300 to 3000 nM	300 to 3000 nM	≤ 300 nM	
Cc1noc(C)c1-c1cc(-c2c(C)noc2C)c2nc(C(F)(F)F)[nH]c2c1 [Example Compound 34, 4,4′-(2-(trifluoromethyl)-1H-benzo[d]imidazole-4,6-diyl)bis(3,5-dimethylixaole)]	300 to 3000 nM	300 to 3000 nM	300 to 3000 nM	≤ 300 nM	
Cc1noc(C)c1-c1cc(NCc2cccnc2)c2nc[nH]c2c1 [Example Compound 35, 6-(3,5-dimethyl-isoxazol-4-yl)-N-(pyridin-3-ylmethyl)-1H-benzo[d] imidazol-4-amine]	300 to 3000 nM	300 to 3000 nM	300 to 3000 nM	≤ 300 nM	
Cc1noc(C)c1-c1cc(-c2cccc(C(N)=O)c2)c2nc[nH]c2c1 [Example Compound 36, 3-(6-(3,5-dimethyl-isoxazol-4-yl)-1H-benzo[d]imidazol-4-yl)benzamide]	300 to 3000 nM	300 to 3000 nM	300 to 3000 nM	≤ 300 nM	
Cc1noc(C)c1-c1cc(NCc2ccc(F)cc2)c2nc[nH]c2c1 [Example Compound 38, 6-(3,5-dimethyl-isoxazol-4-yl)-N-(4-fluorobenzyl)-1H-benzo[d] imidazol-4-amine]	300 to 3000 nM	300 to 3000 nM	300 to 3000 nM	≤ 300 nM	
Cc1conc1Nc1cc(-c2c(C)noc2C)cc2[nH]cnc12 [Example Compound 44, N-(6-(3,5-dimethyl-isoxazol-4-yl)-1H-benzo[d]imidazol-4-yl)-4-methyl-isoxazol-3-amine]	300 to 3000 nM	300 to 3000 nM	300 to 3000 nM	300 to 3000 nM	
COc1ccc(C)cc1-c1cc(-c2c(C)noc2C)cc2[nH]cnc12 [Example Compound 51, 4-(4-(2-methoxy-5-methyl-phenyl)-1H-benzo[d]midazol-6-yl)-3,5-dimethyl isoxazole]	300 to 3000 nM	300 to 3000 nM	300 to 3000 nM	≤ 300 nM	
Cc1nc2c(-c3csnc3C)cc(-c3c(C)noc3C)cc2[nH]1 [Example Compound 52, 3,5-dimethyl-4-(2-methyl-7-(3-methyliso-thiazol-4-yl)-1H-benzo[d]imidazol-5-yl)isoxazole]	300 to 3000 nM	300 to 3000 nM	300 to 3000 nM	≤ 300 nM	
Cc1nc2c(-c3cnccc3C)cc(-c3c(C)noc3C)cc2[nH]1 [Example Compound 53, 3,5-dimethyl-4-(2-methyl-4-(4-methyl-pyridin-3-yl)-1H-benzo[d]imidazol-6-yl)isoxazole]	≤ 300 nM	300 to 3000 nM	300 to 3000 nM	≤ 300 nM	
Cc1noc(C)c1-c1cc(-c2c(C)noc2C)c2c(cnn2C)c1 [Example Compound 54, 4,4′-(1-methyl-1H-indazole-5,7-diyl)bis(3,5-dimethylisoxazole)]	300 to 3000 nM	300 to 3000 nM	≤ 300 nM	≤ 300 nM	
Cc1noc(C)c1-c1cc(-c2c(C)noc2C)c2nn(C)cc2c1 [Example Compound 55, 4,4′-(2-methyl-2H-indazole-5,7-diyl)bis(3,5-dimethylisoxazole)]	300 to 3000 nM	300 to 3000 nM	300 to 3000 nM	≤ 300 nM	
CC(=O)Nc1ccccc1-c1cc(-c2c(C)noc2C)cc2[nH]c(C)nc12 [Example Compound 64, N-(2-(6-(3,5-dimethyl-isoxazol-4-yl)-2-methyl-1H-benzo[d]imidazol-4-yl)phenyl) acetamide]	≤ 300 nM	300 to 3000 nM	300 to 3000 nM	≤ 300 nM	
CNC(=O)c1onc(C)c1-c1cc(-c2c(C)noc2C)cc2[nH]c(C)nc12 [Example Compound 67, 4-(5-(3,5-dimethyl-isoxazol-4-yl)-2-methyl-1H-benzo[d]imidazol-7-yl)-N,3-dimethyl isoxazole-5-carboxamide]		300 to 3000 nM	3000 to 30000 nM	≤ 300 nM	Not active
Cc1nc2c(-c3ccccc3S(C)(=O)=O)cc(-c3c(C)noc3C)cc2[nH]1 [Example Compound 69, 3,5-dimethyl-4-(2-methyl-4-(2-(methyl-sulfonyl)phenyl)-1H-benzo[d]imidazol-6-yl)isoxazole]	300 to 3000 nM	300 to 3000 nM	300 to 3000 nM	≤ 300 nM	
COc1ccncc1-c1cc(-c2c(C)noc2C)cc2[nH]c(C)nc12 [Example Compound 72, 4-(4-(4-methoxy-pyridin-3-yl)-2-methyl-1H-benzo[d]imidazol-6-yl)-3,5-dimethyl isoxazole]	300 to 3000 nM	300 to 3000 nM	300 to 3000 nM	≤ 300 nM	
Cc1nc2c(-c3cc(C(N)=O)ccc3C)cc(-c3c(C)noc3C)cc2[nH]1 [Example Compound 74, 3-(6-(3,5-dimethyl-isoxazol-4-yl)-2-methyl-1H-benzo[d]imidazol-4-yl)-4-methyl benzamide]	300 to 3000 nM	300 to 3000 nM	300 to 3000 nM	≤ 300 nM	
Cc1noc(C)c1-c1cc(-c2c(C)noc2C)c2[nH]c(CC(F)(F)F)nc2c1 [Example Compound 76, 4,4′-(2-(2,2,2-trifluoro-ethyl)-1H-benzo[d]imidazole-5,7-diyl)bis(3,5-dimethylisoxazole)]	300 to 3000 nM	300 to 3000 nM	300 to 3000 nM	≤ 300 nM	
